In patent US12686665B2, “Bicyclic fused ring derivative or salt thereof and pharmaceutical composition comprising same” (YUHAN CORPORATION, priority 2021, dated 2026):
Where a name gives a salt, the structure may show the parent alone.

target: T1, recombinant human Lysyl Oxidase-Like 2 (LOXL2) (Homo sapiens, UniProt Q9Y4K0); assay: Amplex Red HRP-coupled amine oxidase assay, recombinant human LOXL2; type: biochemical; conditions: 60 min incubation with enzyme at 37° C., putrescine substrate, read-out: Inhibitory activity (IC50, nM) human LOXL2
T1 construct: purchased R&D systems
T1 sequence (Q9Y4K0 26-774): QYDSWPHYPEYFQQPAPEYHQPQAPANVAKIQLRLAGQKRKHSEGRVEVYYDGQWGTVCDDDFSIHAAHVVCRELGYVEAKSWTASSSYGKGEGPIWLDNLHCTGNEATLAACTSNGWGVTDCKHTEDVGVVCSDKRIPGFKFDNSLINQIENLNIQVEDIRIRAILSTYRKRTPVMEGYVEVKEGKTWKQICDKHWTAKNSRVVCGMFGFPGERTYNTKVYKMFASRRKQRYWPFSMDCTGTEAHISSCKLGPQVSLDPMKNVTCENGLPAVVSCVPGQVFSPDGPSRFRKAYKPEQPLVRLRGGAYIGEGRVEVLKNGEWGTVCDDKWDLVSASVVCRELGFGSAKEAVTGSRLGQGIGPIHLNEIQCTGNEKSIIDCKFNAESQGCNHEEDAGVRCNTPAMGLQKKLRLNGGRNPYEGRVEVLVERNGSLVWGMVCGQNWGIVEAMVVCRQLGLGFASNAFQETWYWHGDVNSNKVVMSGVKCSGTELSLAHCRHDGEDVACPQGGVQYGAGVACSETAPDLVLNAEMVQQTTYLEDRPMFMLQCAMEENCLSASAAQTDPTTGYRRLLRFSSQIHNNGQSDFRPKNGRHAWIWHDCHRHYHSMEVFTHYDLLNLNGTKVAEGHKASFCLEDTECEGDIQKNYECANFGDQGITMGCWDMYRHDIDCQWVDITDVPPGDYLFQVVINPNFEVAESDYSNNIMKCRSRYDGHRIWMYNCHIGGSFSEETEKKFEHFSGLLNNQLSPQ
Description: The activities of the compounds according to the present invention against recombinant human Lysyl Oxidase-Like 2 (recombinant human LOXL2, R&D systems) were evaluated by measuring the levels of hydrogen peroxide in the HRP (horseradish peroxidase) coupled reactions, with the Amplex Red Hydrogen Peroxide Assay Kit (Molecular Probes, Invitrogen, USA). The tests were carried out at 37° C., and putrescine was used as a substrate. In the HRP coupling reaction, the oxidation of 10-acetyl-3,7-dihydroxyphenoxazine (Amplex Red reagent) by hydrogen peroxide generates a fluorescent product, i.e., resorufin. Briefly, the test compounds were dissolved in dimethyl sulfoxide (DMSO) at a concentration of 20 mM. Dose-response measurements were carried out by serial dilutions in DMSO to generate a six-point curve. The upper concentration was adjusted according to the potency of the compound, and then diluted with the reaction buffer to obtain a final DMSO concentration of 1%. Purified human LOXL2 in 50 mM sodium phosphate buffer (pH7.4) was added to each well of a 96 well black plate. The test compounds dissolved in DMSO were incubated with the human LOXL2 enzyme at 37° C. for 60 minutes. After the incubation for 60 minutes, a reaction mixture containing 400 μM Amplex Red reagent, 30 mM putrescine, and 2 U/mL HRP in 50 mM sodium phosphate buffer (pH 7.4) was added to each well. Fluorescence was measured with a microplate reader (Flexstation3, Molecular Devices), under the conditions of excitation at 530 nm and emission at 590 nm, 1 hour after the addition of the mixture. Inhibition by each compound was measured as % reduction in signal, compared to the control without an inhibitor (diluted DMSO only). The data were fixed to a four-variable logistic model, and […] values were calculated using the GraphPad Prism program.

IC50	Compound
190 nM	NC/C=C(\F)Cn1nnc2c(-c3cncnc3)cc(C(F)(F)F)cc21 [Example 202, (Z)-3-fluoro-4-(4-(pyrimidin-5-yl)-6-(trifluoromethyl)-1H-benzo[d][1,2,3]triazol-1-yl)but-2-en-1-amine hydrochloride]
12.6 nM	CNS(=O)(=O)c1cccc(-c2cc(C(=O)OC)cc3c2nnn3C/C(F)=C/CN)c1 [Example 123, methyl (Z)-1-(4-amino-2-fluorobut-2-en-1-yl)-4-(3-(N-methylsulfamoyl)phenyl)-1H-benzo[d][1,2,3]triazol-6-carboxylate hydrochloride]
351 nM	CCn1nccc1-c1cc(C(F)(F)F)cc2c1nnn2C/C(F)=C/CN [Example 203, (Z)-4-(4-(1-ethyl-1H-pyrazol-5-yl)-6-(trifluoromethyl)-1H-benzo[d][1,2,3]triazol-1-yl)-3-fluorobut-2-en-1-amine hydrochloride]
105 nM	N#Cc1cc(-c2cc(CO)ccc2F)c2ncn(C/C(F)=C/CN)c2c1 [Example 185, (Z)-1-(4-amino-2-fluorobut-2-en-1-yl)-4-(2-fluoro-5-(hydroxymethyl)phenyl)-1H-benzo[d]imidazol-6-carbonitrile hydrochloride]
54.3 nM	CCN(CC)S(=O)(=O)c1ccc(OC)c(-c2cc(C(=O)N(C)OC)cc3c2nnn3C/C(F)=C/CN)c1 [Example 138, (Z)-1-(4-amino-2-fluorobut-2-en-1-yl)-4-(5-(N,N-diethylsulfamoyl)-2-methoxyphenyl)-N-m ethoxy-N-methyl-1H-benzo[d][1,2,3]triazol-6-carboxamide hydrochloride]
72 nM	COc1ccc(-c2cccc3c2nnn3C/C(F)=C/CN)cc1S(=O)(=O)NC(C)C [Example 109, (Z)-5-(1-(4-amino-2-fluorobut-2-en-1-yl)-1H-benzo[d][1,2,3]triazol-4-yl)-N-isopropyl-2-methoxybenzenesulfonamide hydrochloride]
270 nM	N#Cc1cc(-c2cncc(F)c2)c2nnn(C/C(F)=C/CN)c2c1 [Example 208, (Z)-1-(4-amino-2-fluorobut-2-en-1-yl)-4-(5-fluoropyridin-3-yl)-1H-benzo[d][1,2,3]triazol-6-carbonitrile hydrochloride]
35.6 nM	CCN(CC)S(=O)(=O)c1ccc(OC)c(-c2cc(C(=O)NOC)cc3c2nnn3C/C(F)=C/CN)c1 [Example 135, (Z)-1-(4-amino-2-fluorobut-2-en-1-yl)-4-(5-(N,N-diethylsulfamoyl)-2-methoxyphenyl)-N-m ethoxy-1H-benzo[d][1,2,3]triazol-6-carboxamide hydrochloride]
86.8 nM	N#Cc1cc(-c2cncc(Cl)c2)c2nnn(C/C(F)=C/CN)c2c1 [Example 209, (Z)-1-(4-amino-2-fluorobut-2-en-1-yl)-4-(5-chloropyridin-3-yl)-1H-benzo[d][1,2,3]triazol-6-carbonitrile hydrochloride]
52.4 nM	COC(=O)c1cc(-c2cccc(S(=O)(=O)N3CCCC3)c2)c2nnn(C/C(F)=C/CN)c2c1 [Example 116, methyl (Z)-1-(4-amino-2-fluorobut-2-en-1-yl)-4-(3-(pyrrolidin-1-ylsulfonyl)phenyl)-1H-benzo[d][1,2,3]triazol-6-carboxylate hydrochloride]
69.6 nM	CON(C)C(=O)c1cc(-c2cccc(S(=O)(=O)N(C)C)c2)c2nnn(C/C(F)=C/CN)c2c1 [Example 139, (Z)-1-(4-amino-2-fluorobut-2-en-1-yl)-4-(3-(N,N-dimethylsulfamoyl)phenyl)-N-methoxy-N-methyl-1H-benzo[d][1,2,3]triazol-6-carboxamide]
32.2 nM	COC(=O)c1cc(-c2cccc(S(=O)(=O)NC3CC3)c2)c2nnn(C/C(F)=C/CN)c2c1 [Example 122, methyl (Z)-1-(4-amino-2-fluorobut-2-en-1-yl)-4-(3-(N-cyclopropylsulfamoyl)phenyl)-1H-benzo[d][1,2,3]triazol-6-carboxylate hydrochloride]
94.2 nM	COC(=O)c1cc(-c2cc(S(=O)(=O)C(F)(F)F)ccc2C)c2nnn(C/C(F)=C/CN)c2c1 [Example 128, methyl (Z)-1-(4-amino-2-fluorobut-2-en-1-yl)-4-(2-methyl-5-((trifluoromethyl)sulfonyl)phenyl)-1H-benzo[d][1,2,3]triazol-6-carboxylate hydrochloride]
305 nM	NC/C=C(\F)Cn1nnc2c(-c3cccc(CO)c3Cl)cc(C(F)(F)F)cc21 [Example 199, (Z)-(3-(1-(4-amino-2-fluoro-2-en-1-yl)-6-(trifluoromethyl)-1H-benzo[d][1,2,3]triazol-4-yl)-2-chlorophenyl)methanol hydrochloride]
506 nM	Cn1nc(C(F)(F)F)cc1-c1cc(C(F)(F)F)cc2c1ncn2C/C(F)=C/CN [Example 179, (Z)-3-fluoro-4-(4-[1-methyl-3-(trifluoromethyl)-1H-pyrazol-5-yl]-6-(trifluoromethyl)-1H-benzo[d]imidazol-1-yl)but-2-en-1-amine hydrochloride]
6.4 nM	CONC(=O)c1cc(-c2cc(S(=O)(=O)NC3CC3)ccc2OC)c2nnn(C/C(F)=C/CN)c2c1 [Example 136, (Z)-1-(4-amino-2-fluorobut-2-en-1-yl)-4-(5-(N-cyclopropylsulfamoyl)-2-methoxyphenyl)-N-methoxy-1H-benzo[d][1,2,3]triazol-6-carboxamide hydrochloride]
92.8 nM	N#Cc1cc(-c2cncc(Cl)c2)c2ncn(C/C(F)=C/CN)c2c1 [Example 189, (Z)-1-(4-amino-2-fluorobut-2-en-1-yl)-4-(5-chloropyridin-3-yl)-1H-benzo[d]imidazol-6-carbonitrile hydrochloride]
19 nM	CCS(=O)(=O)c1cccc(-c2cc(C(=O)OC)cc3c2nnn3C/C(F)=C/CN)c1 [Example 127, methyl (Z)-1-(4-amino-2-fluorobut-2-en-1-yl)-4-(3-(ethylsulfonyl)phenyl)-1H-benzo[d][1,2,3]triazol-6-carboxylate hydrochloride]
131 nM	N#Cc1cc(-c2cncc(F)c2)c2ncn(C/C(F)=C/CN)c2c1 [Example 188, (Z)-1-(4-amino-2-fluorobut-2-en-1-yl)-4-(5-fluoropyridin-3-yl)-1H-benzo[d]imidazol-6-carbonitrile hydrochloride]
54.2 nM	COC(=O)c1cc(-c2ccc(OC)c(S(=O)(=O)NC(C)C)c2)c2ncn(C/C(F)=C/CN)c2c1 [Example 28, methyl (Z)-1-(4-amino-2-fluorobut-2-en-1-yl)-4-(3-(N-isopropylsulfamoyl)-4-methoxyphenyl)-1H-benzo[d]imidazol-6-carboxylate hydrochloride]
34 nM	COC(=O)c1cc(-c2cccc(S(C)(=O)=O)c2)c2nnn(C/C(F)=C/CN)c2c1 [Example 118, methyl (Z)-1-(4-amino-2-fluorobut-2-en-1-yl)-4-(3-(methylsulfonyl)phenyl)-1H-benzo[d][1,2,3]triazol-6-carboxylate hydrochloride]
55.6 nM	COC(=O)c1cc(-c2cccc(S(=O)(=O)N3CCCCC3)c2)c2ncn(C/C(F)=C/CN)c2c1 [Example 33, methyl (Z)-1-(4-amino-2-fluorobut-2-en-1-yl)-4-(3-(piperidin-1-ylsulfonyl)phenyl)-1H-benzo[d]imidazol-6-carboxylate hydrochloride]
117 nM	N#Cc1cc(-c2cncnc2)c2ncn(C/C(F)=C/CN)c2c1 [Example 190, (Z)-1-(4-amino-2-fluorobut-2-en-1-yl)-4-(pyrimidin-5-yl)-1H-benzo[d]imidazol-6-carbonitrile hydrochloride]
8 nM	CNS(=O)(=O)c1ccc(OC)c(-c2cc(C(=O)NOC)cc3c2nnn3C/C(F)=C/CN)c1 [Example 134, (Z)-1-(4-amino-2-fluorobut-2-en-1-yl)-N-methoxy-4-(2-methoxy-5-(N-methylsulfamoyl)phenyl)-1H-benzo[d][1,2,3]triazol-6-carboxamide hydrochloride]
